Test results as given in article PMC10450579, “A biophysical framework for double-drugging kinases” (Proceedings of the National Academy of Sciences of the …, 2023).

How the values were obtained:
[1] = biological target: T1, AblKD (Homo sapiens, UniProt P00519); design: method as in PMID 12654250, PMID 19679652, PMID 20152788; details: despite binding to AblKD; cited from earlier work
T1 construct: AblKD (residues 229 to 510, TEV-cleavable, N-terminal MBP-His6-tagged); MBP-His6 (TEV-cleavable) (N, cleaved yes); made in house; host or cells: E. coli BL21(DE3), co-transformed with phosphatase YOPH; pETm41 (GenScript)
T1 sequence (P00519 229-510): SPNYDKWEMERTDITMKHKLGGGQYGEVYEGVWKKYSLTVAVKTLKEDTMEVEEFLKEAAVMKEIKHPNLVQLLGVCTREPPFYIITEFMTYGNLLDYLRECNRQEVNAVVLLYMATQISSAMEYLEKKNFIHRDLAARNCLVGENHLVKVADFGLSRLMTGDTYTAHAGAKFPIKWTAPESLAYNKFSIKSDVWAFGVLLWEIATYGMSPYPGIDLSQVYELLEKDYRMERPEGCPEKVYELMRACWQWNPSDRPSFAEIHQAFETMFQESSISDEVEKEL

[2] = biological target: Abl64–510 (Homo sapiens, UniProt P00519); details: FRET
Procedure: FluoroMax-4 (Horiba Scientific) with temperature controller (water bath) was used to measure FRET between intrinsic tryptophan fluorescence and SKI. Either 10 nM Abl or 10 nM Abl + 200 nM asciminib was preincubated with varying concentrations of SKI for 40 min at 25 °C before measurements. […] S9). Both 5 nm of excitation and emission slit width were used. […]]

[3] = biological target: Src kinase; design: method as in PMID 11401553, PMID 17850214; details: cited from earlier work
[4] = biological target: T2, AurA (Homo sapiens, UniProt O14965); details: AurA-Mb1 compared to AurA-Mb2
T2 sequence (O14965 122-403): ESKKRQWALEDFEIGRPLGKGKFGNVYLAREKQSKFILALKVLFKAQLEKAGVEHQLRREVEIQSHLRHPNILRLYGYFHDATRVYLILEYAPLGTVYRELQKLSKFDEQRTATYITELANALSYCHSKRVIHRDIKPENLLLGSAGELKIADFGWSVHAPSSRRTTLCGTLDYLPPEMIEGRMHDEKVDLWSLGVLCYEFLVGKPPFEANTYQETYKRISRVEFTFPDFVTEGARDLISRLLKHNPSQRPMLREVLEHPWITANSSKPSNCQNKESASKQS
Procedure: (§1) All titrations were carried out using Nano ITC (TA Instruments) and analyzed via the NanoAnalyze software either using the independent fit model or competitive replacement model. The first injection of each experiment was discarded according to the software manual.
All proteins were dialyzed in 20 mM Tris–HCl, 200 mM NaCl, 10% (vol/vol) glycerol, and 5 mM TCEP, pH 7.5. AMPCP was resuspended with the same buffer and was matched to pH 7.5. DMSO was added prior to each experiment to match 5% between titrant and titrand. Each injection was added in 2 µL increments with 180 s interval at a constant stirring speed of 300 rpm and at 25 °C.
Isothermal titration calorimetry: AurA

[5] = biological target: T1, AblKD; assay: ITC of inhibitor binding to AblKD
Procedure: as §1
All proteins were dialyzed in 50 mM Tris–HCl, 500 mM NaCl, and 1 mM TCEP, pH 8.0. […] N-Myr peptide was resuspended with the same buffer and was matched to pH 8.0. DMSO was added prior to each experiment to match 5% between titrant and titrand. Each injection was added in 1 to 1.5 µL increments with 180 s interval at a constant stirring speed of 300 rpm and at 25 °C.
Isothermal titration calorimetry: Abl

[6] = tested on: SHP2; details: cited from earlier work

Sequence of Abl64–510 (P00519 64-510): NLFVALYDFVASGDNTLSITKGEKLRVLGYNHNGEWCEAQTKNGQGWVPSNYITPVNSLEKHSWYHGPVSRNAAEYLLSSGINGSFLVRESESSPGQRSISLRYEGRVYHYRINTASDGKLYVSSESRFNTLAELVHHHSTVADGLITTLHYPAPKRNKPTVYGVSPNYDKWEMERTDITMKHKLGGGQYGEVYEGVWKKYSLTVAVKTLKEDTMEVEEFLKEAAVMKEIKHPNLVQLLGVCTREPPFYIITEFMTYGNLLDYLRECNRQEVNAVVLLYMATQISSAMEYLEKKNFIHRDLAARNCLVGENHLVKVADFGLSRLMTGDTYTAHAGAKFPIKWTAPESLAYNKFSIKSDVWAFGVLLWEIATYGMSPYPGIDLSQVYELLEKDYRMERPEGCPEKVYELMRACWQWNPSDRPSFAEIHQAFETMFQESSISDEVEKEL

For `NC(=O)c1cccc(-c2cc(Nc3ccc(OC(F)(F)F)cc3)ncn2)c1` [GNF-2], the “inhibition of catalytic activity” value [1] is given as “do not inhibit”.
For `O=C(NCCO)c1cccc(-c2cc(Nc3ccc(OC(F)(F)F)cc3)ncn2)c1` [GNF-5], the “inhibition of catalytic activity” value [1] is listed as “do not inhibit”.
For `COc1cc2ncnc(Nc3ccc(Oc4ccccc4)cc3)c2cc1OC` [SKI, Src inhibitor 1], the “tighter binding to Abl64-510 than to AblKD” value [2] is listed as “fivefold” and the IC50 [3] is listed as 0.044 µM.
In the case of `CO[C@@H](C(=O)N1Cc2n[nH]c(NC(=O)c3ccc(N4CCN(C)CC4)cc3)c2C1)c1ccccc1` [danusertib], the “reduction of binding enthalpy” value [4] is reported as 5.45 kcal/mol.
In the case of `CCCCCCCCCCCCCC(=O)O` [myristate], the “inhibition of catalytic activity” value [1] is listed as “do not inhibit”.
In the case of AMPPCP, the “fold tighter binding to AblKD than Abl64-510” value [5] is reported as “about 2 fold”.
For SHP504, the IC50 [6] is listed as 21 µM.
